Laboratory results taken from patent US20240158446A1, “CYCLIC COMPOUND HAVING SELECTIVE INHIBITORY ACTION ON KRAS OVER HRAS AND NRAS” (CHUGAI SEIYAKU KABUSHIKI KAISHA, priority 2021, published 2024).
Where a SMILES comes first, the peptide text is derived from it. Bridges are numbered along the chain shown (N, C = ends). [ ]: non-standard residue; d: D form. The star is where a group is joined. hPhe(3-Cl-4-CF3) = N[C@@H](CCc1ccc(C(F)(F)F)c(Cl)c1)C(=O)O; NPrPhe(4-CF3) = CCCN[C@@H](Cc1ccc(C(F)(F)F)cc1)C(=O)O; NMeGly(cPent) = CN[C@H](C(=O)O)C1CCCC1; NMeD = CN[C@@H](CC(=O)O)C(=O)O; NMeL = CN[C@@H](CC(C)C)C(=O)O; NMeS = CN[C@@H](CO)C(=O)O; Morpholide = C1CN(*)CCO1; NMeA = CN[C@@H](C)C(=O)O; Ac5c = NC1(C(=O)O)CCCC1; Ac4c = NC1(C(=O)O)CCC1; Sar = CNCC(=O)O

Tests used:
[1] = system: human lung cancer strain NCI-H441; experiment: cells; settings: NCI-H441, 96 h, read-out: NCI-H441 IC50 (nM), NCI-H441 cell proliferation, 4 days, CellTiter-Glo;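 further: cell proliferation inhibition after four days measured by CellTiter-Glo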
[2] = target: GDP-bound HRAS wild-type protein (Homo sapiens, UniProt P01112); experiment: Binding to HRAS by surface plasmon resonance (SPR), Single Cycle Kinetics; settings: ratio of KD for GDP-bound HRAS wild-type protein to KD for KRAS, SPR
GDP-bound HRAS wild-type protein, sequence (P01112 whole entry): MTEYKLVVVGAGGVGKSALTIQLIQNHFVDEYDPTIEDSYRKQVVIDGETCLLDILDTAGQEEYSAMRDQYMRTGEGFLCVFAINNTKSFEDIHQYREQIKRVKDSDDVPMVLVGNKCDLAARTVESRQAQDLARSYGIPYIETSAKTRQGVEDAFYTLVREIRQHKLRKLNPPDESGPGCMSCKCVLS

[3] = target: GDP-bound KRAS wild-type protein (Homo sapiens, UniProt P01116); experiment: Binding to KRAS by surface plasmon resonance (SPR), Single Cycle Kinetics; settings: SPR, Single Cycle Kinetics, GDP-bound KRAS wild-type protein; read-out: KRAS KD
GDP-bound KRAS wild-type protein, sequence (P01116 whole entry): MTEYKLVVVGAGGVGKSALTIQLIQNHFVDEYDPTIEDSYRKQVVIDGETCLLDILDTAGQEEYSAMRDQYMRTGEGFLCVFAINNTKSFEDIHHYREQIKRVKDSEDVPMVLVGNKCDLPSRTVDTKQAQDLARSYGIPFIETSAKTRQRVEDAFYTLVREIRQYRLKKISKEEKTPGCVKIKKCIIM

[4] = target: GDP-bound NRAS wild-type protein (Homo sapiens, UniProt P01111); experiment: Binding to NRAS by surface plasmon resonance (SPR), Single Cycle Kinetics; settings: ratio of KD for GDP-bound NRAS wild-type protein to KD for KRAS, SPR
GDP-bound NRAS wild-type protein, sequence (P01111 whole entry): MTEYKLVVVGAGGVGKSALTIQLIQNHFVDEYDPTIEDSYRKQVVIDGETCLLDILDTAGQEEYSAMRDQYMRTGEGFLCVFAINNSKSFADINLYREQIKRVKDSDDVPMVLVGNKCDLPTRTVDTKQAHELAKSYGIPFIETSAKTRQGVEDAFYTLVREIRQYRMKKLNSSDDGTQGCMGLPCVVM

| IC50 [1] | Kd [3] | Structure (SMILES) | HRAS/KRAS (KD ratio) [2] | NRAS/KRAS (KD ratio) [4] |
| --- | --- | --- | --- | --- |
| 8.8 nM | 0.084 nM | CCO[C@@H]1C[C@H]2C(=O)N(C)C3(CCCC3)C(=O)N(C)[C@@H](C3CCCC3)C(=O)N(C)[C@H](C(=O)N(C)C)CC(=O)N(C)[C@@H](C3CC3)C(=O)N[C@@H]([C@@H](C)CC)C(=O)N(C)CC(=O)N(C)[C@H]3C/C=C\CCN(C3=O)[C@@H](Cc3ccc(C)cc3)C(=O)N(C)CC(=O)N[C@@H](CCc3cc(F)c(C(F)(F)F)c(F)c3)C(=O)N2C1 [PP1808] | B (a compound having 3 or more and less than 10 is denoted as B) | A (a compound having 10 or more and less than 20 is denoted as A) |
| 5.1 nM | 0.075 nM | CCCOC[C@H]1C(=O)N[C@@H]([C@@H](C)CC)C(=O)N(C)CC(=O)N(C)[C@H]2C/C=C\CCN(C2=O)[C@@H](Cc2ccc(C(F)(F)F)cc2)C(=O)N(C)CC(=O)N[C@@H](CCc2cc(F)c(C(F)(F)F)c(F)c2)C(=O)N2C[C@H](F)C[C@H]2C(=O)NC2(CC(C)(C)C2)C(=O)N(C)[C@@H](C2CCCC2)C(=O)N(C)[C@H](C(=O)N(C)CCC)CC(=O)N1C [PP1698] | A (a compound having 10 or more and less than 20 is denoted as A) | A (a compound having 10 or more and less than 20 is denoted as A) |
| 11.7 nM | 0.21 nM | CC[C@H](C)[C@@H]1NC(=O)[C@H](CC(F)F)N(C)C(=O)C[C@@H](C(=O)N(C)CC)N(C)C(=O)[C@H](C2CCCC2)N(C)C(=O)C2(CC(C)(C)C2)NC(=O)[C@@H]2C[C@H](C)CN2C(=O)[C@H](CCc2ccc(C(F)(F)F)c(Cl)c2)NC(=O)CN(C)C(=O)[C@H](Cc2ccc(C)cc2)N2CC/C=C\C[C@@H](C2=O)N(C)C(=O)CN(C)C1=O [PP1911] | A (a compound having 10 or more and less than 20 is denoted as A) | A (a compound having 10 or more and less than 20 is denoted as A) |
| 3.8 nM | 0.12 nM | CC[C@H](C)[C@@H]1NC(=O)[C@H](CC(F)F)N(C)C(=O)C[C@@H](C(=O)N(C)C)N(C)C(=O)[C@H](C2CCCC2)N(C)C(=O)C2(CC(C)(C)C2)NC(=O)[C@@H]2C[C@H](C)CN2C(=O)[C@H](CCc2cc(F)c(C(F)(F)F)c(F)c2)NC(=O)CN(C)C(=O)[C@H](Cc2ccc(C(F)(F)F)cc2)N2CC/C=C\C[C@@H](C2=O)N(C)C(=O)CN(C)C1=O [PP1658] | A (a compound having 10 or more and less than 20 is denoted as A) | A (a compound having 10 or more and less than 20 is denoted as A) |
| 16.8 nM | 0.49 nM | CCCN1C(=O)CN(C)C(=O)CN(C)C(=O)[C@H]([C@@H](C)CC)NC(=O)[C@H](CC(C)C)N(C)C(=O)C[C@@H](C(=O)N2CCOCC2)N(C)C(=O)[C@H](C2CCCC2)N(C)C(=O)C2(CCC2)NC(=O)[C@H](C)N(C)C(=O)[C@H](CCc2ccc(C(F)(F)F)c(Cl)c2)NC(=O)CN(C)C(=O)[C@@H]1Cc1ccc(C(F)(F)F)cc1 [PP1916] ([NMeL]I[Sar][Sar][NPrPhe(4-CF3)][Sar][hPhe(3-Cl-4-CF3)][NMeA][Ac4c][NMeGly(cPent)][NMeD]-Morpholide; lactam N-11) | C (A compound having a KD ratio of 0.1 or more and less than 3 is denoted as C) | B (a compound having 3 or more and less than 10 is denoted as B) |
| 32.4 nM | 0.31 nM | CCCN1C(=O)CN(C)C(=O)CN(C)C(=O)[C@H]([C@@H](C)CC)NC(=O)[C@H](CC(C)C)N(C)C(=O)C[C@@H](C(=O)N2CCOCC2)N(C)C(=O)[C@H](C2CCCC2)N(C)C(=O)C2(CCCC2)NC(=O)[C@H](COC)N(C)C(=O)[C@H](CCc2ccc(C(F)(F)F)c(Cl)c2)NC(=O)CN(C)C(=O)[C@@H]1Cc1ccc(C(F)(F)F)cc1 [PP1920] ([NMeL]I[Sar][Sar][NPrPhe(4-CF3)][Sar][hPhe(3-Cl-4-CF3)][NMeS](Me)[Ac5c][NMeGly(cPent)][NMeD]-Morpholide; lactam N-11) | C (A compound having a KD ratio of 0.1 or more and less than 3 is denoted as C) | B (a compound having 3 or more and less than 10 is denoted as B) |
| 5.6 nM | 0.11 nM | CCCN(C)C(=O)[C@@H]1CC(=O)N(C)[C@@H](COCC)C(=O)N[C@@H]([C@@H](C)CC)C(=O)N(C)CC(=O)N(C)[C@H]2C/C=C\CCN(C2=O)[C@@H](Cc2ccc(C(F)(F)F)cc2)C(=O)N(C)CC(=O)N[C@@H](CCc2ccc(C(F)(F)F)c(OC)c2)C(=O)N2C[C@H](OCC)C[C@H]2C(=O)NC2(CCC2)C(=O)N(C)[C@@H](C2CCCC2)C(=O)N1C [PP2015] | B (a compound having 3 or more and less than 10 is denoted as B) | A (a compound having 10 or more and less than 20 is denoted as A) |
| 5.4 nM | 0.034 nM | CCO[C@@H]1C[C@H]2C(=O)N(C)C3(CCC3)C(=O)N(C)[C@@H](C3CCCC3)C(=O)N(C)[C@H](C(=O)N(C)C)CC(=O)N(C)[C@@H](CC)C(=O)N[C@@H]([C@@H](C)CC)C(=O)N(C)CC(=O)N(C)[C@H]3C/C=C\CCN(C3=O)[C@@H](Cc3ccc(C(F)(F)F)cc3)C(=O)N(C)CC(=O)N[C@@H](CCc3cc(F)c(C(F)(F)F)c(F)c3)C(=O)N2C1 [PP1779] | B (a compound having 3 or more and less than 10 is denoted as B) | A (a compound having 10 or more and less than 20 is denoted as A) |
| 44.8 nM | 0.68 nM | CCO[C@@H]1C[C@H]2C(=O)NC3(CC(F)(F)C3)C(=O)N(C)[C@@H](C3CCCC3)C(=O)N(C)[C@H](C3CCC3)CC(=O)N(C)[C@@H](CC3CC3)C(=O)N[C@@H]([C@@H](C)CC)C(=O)N(C)CC(=O)N(C)[C@H]3C/C=C\CCN(C3=O)[C@@H](Cc3ccc(C(F)(F)F)cc3)C(=O)N(C)CC(=O)N[C@@H](CCc3cc(F)c(C(F)(F)F)c(F)c3)C(=O)N2C1 [PP1639] | A (a compound having 10 or more and less than 20 is denoted as A) | A (a compound having 10 or more and less than 20 is denoted as A) |
| 1.5 nM | 0.025 nM | CC[C@H](C)[C@@H]1NC(=O)[C@H](CC(F)(F)F)N(C)C(=O)C[C@@H](C(=O)N(C)C)N(C)C(=O)[C@H](C2CCCC2)N(C)C(=O)C2(CC(C)(C)C2)NC(=O)[C@@H]2C[C@@H](F)CN2C(=O)[C@H](CCc2cc(F)c(C(F)(F)F)c(F)c2)NC(=O)CN(C)C(=O)[C@H](Cc2ccc(C(F)(F)F)cc2)N2CC/C=C\C[C@@H](C2=O)N(C)C(=O)CN(C)C1=O [PP1688] | A (a compound having 10 or more and less than 20 is denoted as A) | A (a compound having 10 or more and less than 20 is denoted as A) |
| 6.9 nM | 0.093 nM | CCOC[C@H]1C(=O)N[C@@H]([C@@H](C)CC)C(=O)N(C)CC(=O)N(C)[C@H]2C/C=C\CCN(C2=O)[C@@H](Cc2ccc(C(F)(F)F)cc2)C(=O)N(C)CC(=O)N[C@@H](CCc2ccc(C(F)(F)F)c(OC)c2)C(=O)N2C[C@H](OCC)C[C@H]2C(=O)NC2(CC(C)(C)C2)C(=O)N(C)[C@@H](C2CCCC2)C(=O)N(C)[C@H](C(=O)N(C)CC)CC(=O)N1C [PP2014] | A (a compound having 10 or more and less than 20 is denoted as A) | A (a compound having 10 or more and less than 20 is denoted as A) |
| 37 nM | 0.2 nM | CCO[C@@H]1C[C@H]2C(=O)NC3(CC(F)(F)C3)C(=O)N(C)[C@@H](C3CCCC3)C(=O)N3CCC[C@@H]3CC(=O)N(C)[C@@H](CC)C(=O)N[C@@H]([C@@H](C)CC)C(=O)N(C)CC(=O)N(C)[C@H]3C/C=C\CCN(C3=O)[C@@H](Cc3ccc(C(F)(F)F)cc3)C(=O)N(C)CC(=O)N[C@@H](CCc3cc(F)c(C(F)(F)F)c(F)c3)C(=O)N2C1 [PP1609] | A (a compound having 10 or more and less than 20 is denoted as A) | A (a compound having 10 or more and less than 20 is denoted as A) |
| 6.7 nM | 0.1 nM | CCCN(C)C(=O)[C@@H]1CC(=O)N(C)[C@@H](CC)C(=O)N[C@@H]([C@@H](C)CC)C(=O)N(C)CC(=O)N(C)[C@H]2C/C=C\CCN(C2=O)[C@@H](Cc2ccc(C(F)(F)F)cc2)C(=O)N(C)CC(=O)N[C@@H](CCc2cc(F)c(C(F)(F)F)c(F)c2)C(=O)N2C[C@H](OCC)C[C@H]2C(=O)NC2(CC(C)(C)C2)C(=O)N(C)[C@@H](C2CCCC2)C(=O)N1C [PP1670] | A (a compound having 10 or more and less than 20 is denoted as A) | A (a compound having 10 or more and less than 20 is denoted as A) |
| 3.5 nM | 0.028 nM | CCO[C@@H]1C[C@H]2C(=O)N(C)C3(CCC3)C(=O)N(C)[C@@H](C3CCCC3)C(=O)N(C)[C@H](C(=O)N(C)C)CC(=O)N(C)[C@@H](C3CC3)C(=O)N[C@@H]([C@@H](C)CC)C(=O)N(C)CC(=O)N(C)[C@H]3C/C=C\CCN(C3=O)[C@@H](Cc3ccc(C)cc3)C(=O)N(C)CC(=O)N[C@@H](CCc3cc(F)c(C(F)(F)F)c(F)c3)C(=O)N2C1 [PP1783] | B (a compound having 3 or more and less than 10 is denoted as B) | A (a compound having 10 or more and less than 20 is denoted as A) |
| 105 nM | 0.63 nM | CCO[C@@H]1C[C@H]2C(=O)NC3(CCC3)C(=O)N(C)[C@@H](C3CCCC3)C(=O)N(C)[C@H](C(=O)N(C)C)CC(=O)N(C)[C@@H](CC)C(=O)N[C@@H]([C@@H](C)CC)C(=O)N(C)CC(=O)N(C)[C@H]3C/C=C\CCN(C3=O)[C@@H](Cc3ccc(C(F)(F)F)cc3)C(=O)N(C)CC(=O)N[C@@H](CCc3cc(C)c(Cl)c(C)c3)C(=O)N2C1 [PP1821] | A (a compound having 10 or more and less than 20 is denoted as A) | A (a compound having 10 or more and less than 20 is denoted as A) |
